Experimental data as given in US20030212014A1 (priority 2000, published 2003).
Where two headings read alike, the source gives them in different places.

What was measured:
[1] = test system: human retinal pericytes; assay: Ceramide and DAG levels by diacylglycerol kinase method in pericytes; assay type: cell-based
Description: Apoptosis was induced by incubating the cells with a medium containing 0-0.5 mM palmitic acid for 3 days. Apoptotic cells were determined by conventional TUNEL staining. Ceramide and DAG levels were measured the by diacylgycerol kinase method using 32P-ATP.

[2] = test system: rats; assay: Acute effects of AICAR on blood and plasma metabolites and hormones in rats; assay type: in vivo, rat
[3] = test system: juvenile rats; assay: Chronic intermittent AICAR treatment of juvenile rats; assay type: in vivo, rat
Description: This dose distributed in the extracellular space of the rat (approx. 20 ml/100g b. w.) yields a concentration in the extracellular space of approximately 5 mM.
Referring to FIG. 19, it can be seen that food intake was diminished by approximately 25% over the first 24 hrs following each injection. The rats appear to compensate by eating more on the following day. […] Cumulative net food intake was diminished only modestly (about 3%) during all long-term studies.
These include the GLUT 4 glucose transporter, hexokinase and various mitochondrial enzymes including cytochrome C oxidase and citrate synthase. […] Also we found no increase in muscle glycogen.

[4] = test system: Na+/K+ pump; assay: Radioactive rubidium uptake with and without ouabain in HUVEC; assay type: cell-based, human; conditions: 2 mM AICAR for 2 hours
Description: One of the major ATP users, the Na^+/K^+pump, was investigated. The activity of this pump was tested by measuring the uptake of radioactive rubidium in the absence and presence of ouabain, an Na^+/K^+pump inhibitor. The difference in uptake, which is referred to as ouabain-sensitive Rb^+uptake, is the Na^+/K^+pump activity. […] When the ouabain sensitive component was calculated, no ,difference was seen between the two incubations, (2.11±0.9 and 3.3±0.9 pmol/min/mg protein), thus leading us to believe that no change in Na^+/K^+pump activity had occurred. […] The AMPK activity remained high with a longer incubation time up to 120 minutes.

[5] = test system: HUVEC; assay: HUVEC metabolism after 16 hrs incubation with 30 mM glucose; assay type: cell-based, human; conditions: 1 mM AICAR in 30 mM glucose
Description: Incubation of HUVEC with 30 mM glucose for 16 hrs decreased free fatty oxidation by 50% (FIG. 7A) and increased free fatty acid incorporation into diacylglycerol (DAG) (i.e., esterification) by 40% (FIG. 7B). These changes were accompanied by a significant decline in mitochondria membrane potential (FIG. 7C).

[6] = test system: HUVEC; assay: Fatty acid metabolism and malonyl CoA in HUVEC after 24 hr in 30 mM glucose; assay type: cell-based, human; conditions: 30 mM glucose + 1 mM AICAR
Description: Fatty acid oxidation was measured over 2 hours after 24 hr prelabeling with ^3H-palmitate. Data are means ±SD (n=4−6). *P<0.05; vs 5 mM glucose. † p<0.05; vs 30 mM glucose;
(§1) We have previously shown that incubation of HUVEC for 2 hr in media containing 30 mM vs 5 mM glucose causes no changes in AMPK activity, malonyl CoA concentration, fatty acid oxidation, or lactate release. […] In addition, it impaired Akt phosphorylation in the presence of insulin (FIG. 11). […] AMPK activity tended to be higher after 24 h of incubation with 30 mM glucose; however, whether it was inappropriately low, in light of the decrease in ATP content (and presumably an increased AMP/ATP ratio), was not ascertained.

[7] = test system: muscle ACC activity and malonyl CoA; assay: ACC activity and malonyl CoA in muscle two hours after AICAR injection; assay type: in vivo, rat; conditions: 250 mg/kg
[8] = test system: Akt; assay: Akt phosphorylation in the presence of insulin in HUVEC; assay type: cell-based, human; conditions: 30 mM glucose + 1 mM AICAR, 24 h
Description: Results are means±SE (n=4) *p<0.05 vs 5 mM glucose. † p<0.05 vs 30 mM glucose;
as §1

[9] = test system: rats; conditions: cited from earlier work
[10] = 1 mM AICAR vs 0.5 mM palmitate alone
[11] = 250 mg/kg, 3 days/wk over 106 days
[12] = 12-week study period, not statistically significant

NC(=O)c1ncn([C@@H]2O[C@H](CO)[C@@H](O)[C@H]2O)c1N [AICAR, 5-aminoimidizole-4-carboxamide riboside]
DAG levels ([1]; 0.5 mM palmitate + 1 mM AICAR): 24±5 nmol/mg protein
ceramide levels ([1]; 0.5 mM palmitate + 1 mM AICAR): 3.8±1 nmol/mg protein
decrease in DAG levels [1, 10]: 50%
decrease in ceramide levels [1, 10]: 60%
blood glucose levels ([2]; 250 mg/kg, 2-6 hours following administration): moderately diminished
blood lactate ([2]; acute, high doses): increase
plasma free fatty acid (FFA) levels ([2]; acute, high doses): decrease
plasma leptin ([2]; all doses studied, at 2 hrs): did not significantly alter
plasma triglycerides ([2]; all doses studied, at 2 hrs): did not significantly alter
decrease in food intake over the first 24 hrs following each injection ([3]; 250 mg/kg 3 times/week, chow diet): approximately 25%
hepatic enlargement ([3]; 250 mg/kg intermittent regimen): no hepatic enlargement
hepatocellular damage, morphologically (light microscope) ([3]; 250 mg/kg intermittent regimen): no evidence of hepatocellular damage
decrease in mass of intra-abdominal (retroperitoneal, mesenteric, epididymal) fat depots ([3]; 250 mg/kg s.c. M, W, F for 25 days): 20-40%
GLUT 4, UCP3, cytochrome C oxidase (RT-PCR) and citrate synthase activity in muscle [3, 11]: no changes
muscle glycogen [3, 11]: no increase
weights of the heart, liver or other organs ([3]; 250 mg/kg, at 25 days): no differences
muscle mass ([3]; 250 mg/kg, at 106 days): increase in muscle mass is suggested
decrease in food intake [3, 12]: 3-4%
weight gain less than control [3, 12]: 32 g
decrease in plasma triglycerides ([3]; 25 days treatment, 250 mg/kg): 40%
plasma leptin ([3]; 25 days treatment, 24 hrs following the last injection): significantly diminished
decrease in cumulative net food intake ([3]; all long-term studies): about 3%
glucose and insulin levels during an oral glucose tolerance test ([3]; chronic AICAR treatment): lower
plasma insulin levels ([3]; chronic AICAR treatment): significantly diminished
tolerability / gross toxicity ([3]; rat, in vivo, sc, 250 mg/kg): without evidence of gross toxicity
ouabain-sensitive Rb+ uptake (Na+/K+ pump activity) [4]: 3.3±0.9 pmol/min/mg protein
total rubidium uptake [4]: 6.0 ±0.3 pmol/min/mg protein
decline in mitochondria membrane potential caused by 30 mM glucose [5]: prevented all these changes
decrease in free fatty acid oxidation caused by 30 mM glucose [5]: prevented all these changes
increase in free fatty acid incorporation into diacylglycerol caused by 30 mM glucose [5]: prevented all these changes
concentration of malonyl-CoA [6]: even lower than that in cells incubated with 5 mM glucose
diminished fatty acid oxidation caused by 30 mM glucose [6]: completely prevented
increased incorporation of radioactive glucose and palmitate into diacylglycerol caused by 30 mM glucose [6]: completely prevented
ACC activity in muscle [7]: did not depress ACC significantly
malonyl CoA levels in muscle [7]: no effect
impaired Akt phosphorylation in the presence of insulin caused by 30 mM glucose [8]: completely prevented
blood glucose levels ([9]; 500 mg/kg/twice daily, control and diabetic rats (U.S. Pat. No. 5,658,889)): lowers
liver size ([9]; 1000 mg/kg body weight daily for 28 days (Winder)): hepatic enlargement
muscle glycogen ([9]; 1000 mg/kg/day for 28 days (Winder et al.)): increased
